Activity calls are given as the source filed them. The rule behind the calls is not given here.
Columns and labels:
Quadruplex DNA [1] = assay: Thermal stabilization of human c-Myc G4 quadruplex DNA assessed as change in melting temperature (deltaT1/2) incubated for 10 mins by circular dichroism spectroscopic analysis (reference value: 70.5 +/- 0.1 degreeC); type: nucleic-acid assay
SW-620 = assay: Antiproliferative activity against human SW620 cells assessed as growth inhibition incubated for 48 hrs by SRB assay; type: functional
COLO 205 = assay: Antiproliferative activity against human COLO 205 cells assessed as growth inhibition incubated for 48 hrs by SRB assay; type: functional
HT-29 = assay: Antiproliferative activity against human HT-29 cells assessed as growth inhibition incubated for 48 hrs by SRB assay; type: functional
MDA-MB-231 = assay: Antiproliferative activity against human MDA-MB-231 cells assessed as growth inhibition incubated for 48 hrs by SRB assay; type: functional
ACHN = assay: Antiproliferative activity against human ACHN cells assessed as growth inhibition incubated for 48 hrs by SRB assay; type: functional
HCC 2998 = assay: Antiproliferative activity against human HCC 2998 cells assessed as growth inhibition incubated for 48 hrs by SRB assay; type: functional
RXF 393 = assay: Antiproliferative activity against human RXF 393 cells assessed as growth inhibition incubated for 48 hrs by SRB assay; type: functional
Quadruplex DNA [2] = assay: Thermal stabilization of human Tel26-hy G4 quadruplex DNA assessed as change in melting temperature (deltaT1/2) incubated for 10 mins by circular dichroism spectroscopic analysis (reference value: 55.4 +/- 0.1 degreeC); type: nucleic-acid assay
MDA-MB-435 = assay: Antiproliferative activity against human MDA-MB-435 cells assessed as growth inhibition incubated for 48 hrs by SRB assay; type: functional
SN12C = assay: Antiproliferative activity against human SN12C cells assessed as growth inhibition incubated for 48 hrs by SRB assay; type: functional
LOX IMVI = assay: Antiproliferative activity against human LOX IMVI cells assessed as growth inhibition incubated for 48 hrs by SRB assay; type: functional
SNB-19 = assay: Antiproliferative activity against human SNB-19 cells assessed as growth inhibition incubated for 48 hrs by SRB assay; type: functional
MOLT-4 = assay: Antiproliferative activity against human MOLT-4 cells assessed as growth inhibition incubated for 48 hrs by SRB assay; type: functional
HOP-62 = assay: Antiproliferative activity against human HOP-62 cells assessed as growth inhibition incubated for 48 hrs by SRB assay; type: functional
SK-MEL-2 = assay: Antiproliferative activity against human SK-MEL-2 cells assessed as growth inhibition incubated for 48 hrs by SRB assay; type: functional
MDA-MB-468 = assay: Antiproliferative activity against human MDA-MB-468 cells assessed as growth inhibition incubated for 48 hrs by SRB assay; type: functional
A498 = assay: Antiproliferative activity against human A498 cells assessed as growth inhibition incubated for 48 hrs by SRB assay; type: functional
U-251 = assay: Antiproliferative activity against human U-251 cells assessed as growth inhibition incubated for 48 hrs by SRB assay; type: functional
SNB-75 = assay: Antiproliferative activity against human SNB-75 cells assessed as growth inhibition incubated for 48 hrs by SRB assay; type: functional
HOP-92 = assay: Antiproliferative activity against human HOP-92 cells assessed as growth inhibition incubated for 48 hrs by SRB assay; type: functional
Quadruplex DNA [3] = assay: Stabilization of human telomeric 26 hybrid G4 quadruplex DNA incubated for 10 mins by circular dichroism spectroscopic analysis; type: nucleic-acid assay
HCT-116 = assay: Antiproliferative activity against human HCT-116 cells assessed as growth inhibition incubated for 48 hrs by SRB assay; type: functional
MCF7 = assay: Antiproliferative activity against human MCF7 cells assessed as growth inhibition incubated for 48 hrs by SRB assay; type: functional
Quadruplex DNA [4] = assay: Binding affinity to human parallel c-Kit2 G4 quadruplex DNA assessed as dissociation constant by MST analysis; type: nucleic-acid assay
NCI-H522 = assay: Antiproliferative activity against human NCI-H522 cells assessed as growth inhibition incubated for 48 hrs by SRB assay; type: functional
Quadruplex DNA [5] = assay: Thermal stabilization of FAM labeled human Tel21T G4 quadruplex DNA assessed as change in melting temperature (deltaT1/2) in presence of 50 uM unlabeled duplex competitor (ds26) by FRET assay; type: nucleic-acid assay
Quadruplex DNA [6] = assay: Binding affinity to human hybrid Tel23 G4 quadruplex DNA assessed as dissociation constant by MST analysis; type: nucleic-acid assay
Quadruplex DNA [7] = assay: Thermal stabilization of FAM labeled human Tel21T G4 quadruplex DNA assessed as change in melting temperature (deltaT1/2) in presence of 15 uM unlabeled duplex competitor (ds26) by FRET assay; type: nucleic-acid assay
dsDNA [8] = assay: Binding affinity to human duplex ds26 DNA assessed as dissociation constant by MST analysis; type: nucleic-acid assay
Quadruplex DNA [9] = assay: Thermal stabilization of FAM labeled human Tel21T G4 quadruplex DNA assessed as change in melting temperature (deltaT1/2) in presence of unlabeled duplex competitor (ds26) by FRET assay; type: nucleic-acid assay
Quadruplex DNA [10] = assay: Binding affinity to human hybrid c-Myc G4 quadruplex DNA assessed as dissociation constant by MST analysis; type: nucleic-acid assay
dsDNA [11] = assay: Binding affinity to human […] Tel26-hy DNA assessed as dissociation constant by MST analysis; type: nucleic-acid assay

Structure (SMILES) | ΔTm (Quadruplex DNA [1]) [°C] | GI (SW-620) [µM] | GI (COLO 205) [µM] | GI (HT-29) [µM] | GI (MDA-MB-231) [µM] | GI (ACHN) [µM] | GI (HCC 2998) [µM] | GI (RXF 393) [µM] | ΔTm (Quadruplex DNA [2]) [°C] | GI (MDA-MB-435) [µM] | GI (SN12C) [µM] | GI (LOX IMVI) [µM] | GI (SNB-19) [µM] | GI (MOLT-4) [µM] | GI (HOP-62) [µM] | GI (SK-MEL-2) [µM] | GI (MDA-MB-468) [µM] | GI (A498) [µM] | GI (U-251) [µM] | GI (SNB-75) [µM] | other results
CCN(CC)CCn1c2ccc(O)cc2c2sc3cc(OC)ccc3c(=O)c21 | > 20 | 0.675 | 3.08 | 1.75 | 1.61 | 1.13 | 1.47 | 1.31 | 7.5 | 1.64 | 5.83 | 1.21 | 1.51 | 0.389 | 6.03 | 9.15 | 1.54 | 3.08 | 1.58 | 2.39 | GI (HOP-92): 2.58 µM; Activity (Quadruplex DNA [3]): Active; GI (HCT-116): 1.07 µM; GI (MCF7): 1.18 µM
CCN(CC)CCn1c2ccc(OC)cc2c2sc3cc(OC)ccc3c(=O)c21 | > 20 | 0.825 | 1.39 | 1.52 | 1.54 | 1 | 1.48 | 1.4 | 10.4 | 1.73 | 2.03 | 1.3 | 2.43 | 0.383 | 2.32 | 2.1 | 1.56 | 1.12 | 1.55 | 1.11 | Kd (Quadruplex DNA [4]): 300 nM; GI (NCI-H522): 1.71 µM; ΔTm (Quadruplex DNA [5]): 1.6 °C; Kd (Quadruplex DNA [6]): 9000 nM; ΔTm (Quadruplex DNA [7]): 1.9 °C; Kd (dsDNA [8]): 1300 nM; GI (HOP-92): 1.13 µM; ΔTm (Quadruplex DNA [9]): 12.6 °C; Activity (Quadruplex DNA [3]): Active; Kd (Quadruplex DNA [10]): 2100 nM; GI (HCT-116): 0.659 µM; GI (MCF7): 1.16 µM; Kd (dsDNA [11]): 23000 nM

Source: ChEMBL document CHEMBL6127154, “Pursuing Polypharmacology: Benzothiopyranoindoles as G-Quadruplex Stabilizers and Topoisomerase I Inhibitors for Effective Anticancer Strategies” (ACS Med Chem Lett, 2024)
